Laboratory results as given in the kinase profiling compilation of Christmann-Franck et al. (2016).
“And” between values parts separate entries of the source, which are not always exact repeats. Equal entries are not always repeated.

How the values were obtained:
Experiment in all cases: radiometric filter-binding kinase assay, Kinase HotSpot
Settings in all cases: compound 0.5 µM; ATP 10 µM
EPHA4 (human) = EPHA4 (human) (UniProt P54764)
PHKG2 (human) = PHKG2 (human) (UniProt P15735)
CDK9 CCNT1 (human) = CDK9 CCNT1 (human) (UniProt P50750+O60563)
ROCK2 (human) = ROCK2 (human) (UniProt O75116)
LYN (human) = LYN (human) (UniProt P07948)
CSK (human) = CSK (human) (UniProt P41240)
PKN1 (human) = PKN1 (human) (UniProt Q16512)
CDK1 CCNB1 (human) = CDK1 CCNB1 (human) (UniProt P06493+P14635)
STK11 (human) = STK11 (human) (UniProt Q15831)
IGF1R (human) = IGF1R (human) (UniProt P08069)
TXK (human) = TXK (human) (UniProt P42681)
MAP3K10 (human) = MAP3K10 (human) (UniProt Q02779)
DYRK4 (human) = DYRK4 (human) (UniProt Q9NR20)
STK39 (human) = STK39 (human) (UniProt Q9UEW8)
CDK2 CCNE1 (human) = CDK2 CCNE1 (human) (UniProt P24941+P24864)
PDPK1 (human) = PDPK1 (human) (UniProt O15530)
PBK (human) = PBK (human) (UniProt Q96KB5)
STK10 (human) = STK10 (human) (UniProt O94804)
AKT2 (human) = AKT2 (human) (UniProt P31751)
TGFBR1 (human) = TGFBR1 (human) (UniProt P36897)
RPS6KA6 KD1 KD2 (human) = RPS6KA6 KD1 KD2 (human) (UniProt Q9UK32)
DSTYK (human) = DSTYK (human) (UniProt Q6XUX3)
MAP3K11 (human) = MAP3K11 (human) (UniProt Q16584)
ZAP70 (human) = ZAP70 (human) (UniProt P43403)
RPS6KA3 KD1 KD2 (human) = RPS6KA3 KD1 KD2 (human) (UniProt P51812)
PRKCB1 (human) = PRKCB1 (human) (UniProt P05771)
EPHA2 (human) = EPHA2 (human) (UniProt P29317)
PAK2 (human) = PAK2 (human) (UniProt Q13177)
STK3 (human) = STK3 (human) (UniProt Q13188)
ABL1 (human) = ABL1 (human) (UniProt P00519)
FYN (human) = FYN (human) (UniProt P06241)
MAP4K5 (human) = MAP4K5 (human) (UniProt Q9Y4K4)
MAPKAPK2 (human) = MAPKAPK2 (human) (UniProt P49137)
WNK3 (human) = WNK3 (human) (UniProt Q9BYP7)
LRRK2 (human) = LRRK2 (human) (UniProt Q5S007)
GSG2 (human) = GSG2 (human) (UniProt Q8TF76)
JAK2 JH1 JH2 (human) = JAK2 JH1 JH2 (human) (UniProt O60674)
LIMK1 (human) = LIMK1 (human) (UniProt P53667)
TAOK1 (human) = TAOK1 (human) (UniProt Q7L7X3)
LCK (human) = LCK (human) (UniProt P06239)
RAF1 (human) = RAF1 (human) (UniProt P04049)
PRKCE (human) = PRKCE (human) (UniProt Q02156)

Chain of LYN (human) (P07948 whole entry, looked up): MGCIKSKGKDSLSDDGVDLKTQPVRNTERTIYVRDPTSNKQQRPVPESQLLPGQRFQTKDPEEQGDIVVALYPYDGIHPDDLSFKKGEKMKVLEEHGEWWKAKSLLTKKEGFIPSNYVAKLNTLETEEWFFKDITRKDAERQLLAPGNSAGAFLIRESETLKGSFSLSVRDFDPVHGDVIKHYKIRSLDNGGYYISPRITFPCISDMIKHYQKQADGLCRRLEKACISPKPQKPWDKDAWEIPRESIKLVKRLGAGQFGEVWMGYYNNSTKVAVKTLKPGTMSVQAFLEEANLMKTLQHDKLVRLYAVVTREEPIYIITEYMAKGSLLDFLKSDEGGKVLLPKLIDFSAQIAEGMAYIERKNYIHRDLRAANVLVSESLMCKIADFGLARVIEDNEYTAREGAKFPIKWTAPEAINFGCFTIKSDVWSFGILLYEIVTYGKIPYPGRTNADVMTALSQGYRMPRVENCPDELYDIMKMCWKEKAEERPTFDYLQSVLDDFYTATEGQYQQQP
Chain of CDK1 CCNB1 (human) (P06493 whole entry, looked up): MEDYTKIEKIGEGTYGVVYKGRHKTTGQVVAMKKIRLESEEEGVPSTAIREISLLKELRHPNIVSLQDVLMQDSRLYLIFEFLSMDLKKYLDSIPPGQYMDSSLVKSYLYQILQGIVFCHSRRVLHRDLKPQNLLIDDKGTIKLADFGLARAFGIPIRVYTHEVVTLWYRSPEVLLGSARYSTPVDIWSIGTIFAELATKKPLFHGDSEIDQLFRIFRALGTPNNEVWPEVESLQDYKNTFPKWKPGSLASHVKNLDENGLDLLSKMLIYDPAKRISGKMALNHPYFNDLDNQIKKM
Chain of CDK1 CCNB1 (human) (P14635 whole entry, looked up): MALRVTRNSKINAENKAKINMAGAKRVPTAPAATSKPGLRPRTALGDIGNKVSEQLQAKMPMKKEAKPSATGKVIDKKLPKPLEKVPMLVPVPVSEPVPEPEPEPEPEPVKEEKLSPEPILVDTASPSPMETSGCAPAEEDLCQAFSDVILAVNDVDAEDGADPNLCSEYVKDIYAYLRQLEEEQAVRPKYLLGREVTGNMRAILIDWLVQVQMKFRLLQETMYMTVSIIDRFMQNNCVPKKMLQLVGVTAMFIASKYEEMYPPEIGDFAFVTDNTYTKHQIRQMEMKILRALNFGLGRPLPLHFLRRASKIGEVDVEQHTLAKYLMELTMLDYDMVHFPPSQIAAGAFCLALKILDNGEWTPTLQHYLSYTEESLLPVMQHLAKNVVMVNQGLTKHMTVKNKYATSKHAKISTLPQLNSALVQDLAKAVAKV
Chain of MAP4K5 (human) (Q9Y4K4 whole entry, looked up): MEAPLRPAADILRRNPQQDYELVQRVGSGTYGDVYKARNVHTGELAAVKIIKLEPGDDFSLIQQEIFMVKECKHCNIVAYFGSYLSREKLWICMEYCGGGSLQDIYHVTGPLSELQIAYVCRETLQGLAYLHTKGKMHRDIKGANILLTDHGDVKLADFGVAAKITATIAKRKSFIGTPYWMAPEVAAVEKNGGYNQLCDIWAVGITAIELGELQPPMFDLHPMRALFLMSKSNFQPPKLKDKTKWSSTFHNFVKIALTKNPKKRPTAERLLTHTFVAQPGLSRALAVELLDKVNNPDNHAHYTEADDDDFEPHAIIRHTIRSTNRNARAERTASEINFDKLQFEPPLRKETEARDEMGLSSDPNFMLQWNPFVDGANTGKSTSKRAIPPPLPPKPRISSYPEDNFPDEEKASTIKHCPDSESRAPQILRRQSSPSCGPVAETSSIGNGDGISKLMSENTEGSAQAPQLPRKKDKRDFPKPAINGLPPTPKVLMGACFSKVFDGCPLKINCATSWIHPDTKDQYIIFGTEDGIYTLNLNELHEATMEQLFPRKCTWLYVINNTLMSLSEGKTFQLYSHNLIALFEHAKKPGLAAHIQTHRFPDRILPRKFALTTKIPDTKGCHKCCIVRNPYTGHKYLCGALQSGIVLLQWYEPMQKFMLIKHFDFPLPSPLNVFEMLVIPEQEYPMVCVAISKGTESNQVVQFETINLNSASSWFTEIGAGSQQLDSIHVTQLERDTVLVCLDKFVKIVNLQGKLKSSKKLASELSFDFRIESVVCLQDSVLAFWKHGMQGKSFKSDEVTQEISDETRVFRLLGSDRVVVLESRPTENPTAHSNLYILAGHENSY
Chain of PHKG2 (human) (P15735 whole entry, looked up): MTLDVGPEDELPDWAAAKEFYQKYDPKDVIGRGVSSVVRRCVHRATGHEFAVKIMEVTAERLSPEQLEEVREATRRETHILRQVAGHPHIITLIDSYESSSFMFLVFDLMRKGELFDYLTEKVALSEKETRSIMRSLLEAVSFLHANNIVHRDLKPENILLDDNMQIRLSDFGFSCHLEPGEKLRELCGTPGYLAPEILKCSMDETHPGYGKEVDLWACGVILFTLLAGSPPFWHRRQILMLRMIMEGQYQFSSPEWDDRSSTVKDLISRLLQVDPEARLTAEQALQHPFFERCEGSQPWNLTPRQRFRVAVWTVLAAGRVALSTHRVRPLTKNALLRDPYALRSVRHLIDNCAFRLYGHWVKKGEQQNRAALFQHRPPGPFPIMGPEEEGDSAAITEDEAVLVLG
Chain of AKT2 (human) (P31751 whole entry, looked up): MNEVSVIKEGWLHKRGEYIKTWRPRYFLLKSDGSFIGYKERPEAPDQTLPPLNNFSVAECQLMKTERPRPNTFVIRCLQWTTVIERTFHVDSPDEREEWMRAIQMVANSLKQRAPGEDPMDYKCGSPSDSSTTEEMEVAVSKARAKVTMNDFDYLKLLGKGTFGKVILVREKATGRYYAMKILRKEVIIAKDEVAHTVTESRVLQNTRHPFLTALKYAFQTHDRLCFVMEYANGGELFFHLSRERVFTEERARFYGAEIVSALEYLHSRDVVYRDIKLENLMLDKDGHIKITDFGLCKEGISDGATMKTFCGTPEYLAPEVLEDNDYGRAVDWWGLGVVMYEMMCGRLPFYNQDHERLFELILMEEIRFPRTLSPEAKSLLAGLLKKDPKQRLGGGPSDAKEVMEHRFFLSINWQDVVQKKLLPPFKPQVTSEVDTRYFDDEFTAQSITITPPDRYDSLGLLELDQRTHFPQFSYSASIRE
Chain of TAOK1 (human) (Q7L7X3 whole entry, looked up): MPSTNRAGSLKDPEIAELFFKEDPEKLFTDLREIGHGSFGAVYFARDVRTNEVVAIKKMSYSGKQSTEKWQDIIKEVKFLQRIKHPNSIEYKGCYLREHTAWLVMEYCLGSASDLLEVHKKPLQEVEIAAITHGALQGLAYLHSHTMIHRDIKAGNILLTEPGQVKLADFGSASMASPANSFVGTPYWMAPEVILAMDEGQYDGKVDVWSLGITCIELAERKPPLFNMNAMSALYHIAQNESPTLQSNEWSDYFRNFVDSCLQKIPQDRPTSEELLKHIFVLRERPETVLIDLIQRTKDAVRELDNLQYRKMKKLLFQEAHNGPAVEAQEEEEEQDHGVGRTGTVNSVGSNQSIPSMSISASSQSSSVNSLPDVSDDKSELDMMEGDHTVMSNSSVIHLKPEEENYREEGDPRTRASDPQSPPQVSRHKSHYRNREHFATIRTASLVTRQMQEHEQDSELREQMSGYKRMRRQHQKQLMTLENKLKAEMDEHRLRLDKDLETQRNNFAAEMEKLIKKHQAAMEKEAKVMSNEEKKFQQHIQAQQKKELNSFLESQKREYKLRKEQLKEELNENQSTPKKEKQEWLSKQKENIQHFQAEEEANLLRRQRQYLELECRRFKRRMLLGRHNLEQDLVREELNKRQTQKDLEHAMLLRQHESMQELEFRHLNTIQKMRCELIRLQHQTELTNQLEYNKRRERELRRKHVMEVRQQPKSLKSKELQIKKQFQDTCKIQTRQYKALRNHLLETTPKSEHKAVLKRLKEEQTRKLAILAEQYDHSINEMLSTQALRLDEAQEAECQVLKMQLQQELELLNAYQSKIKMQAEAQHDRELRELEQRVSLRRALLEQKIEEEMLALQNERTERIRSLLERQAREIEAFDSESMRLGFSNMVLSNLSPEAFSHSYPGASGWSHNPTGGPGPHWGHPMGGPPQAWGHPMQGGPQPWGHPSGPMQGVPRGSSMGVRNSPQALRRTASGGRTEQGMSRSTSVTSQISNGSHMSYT
Chain of MAPKAPK2 (human) (P49137 whole entry, looked up): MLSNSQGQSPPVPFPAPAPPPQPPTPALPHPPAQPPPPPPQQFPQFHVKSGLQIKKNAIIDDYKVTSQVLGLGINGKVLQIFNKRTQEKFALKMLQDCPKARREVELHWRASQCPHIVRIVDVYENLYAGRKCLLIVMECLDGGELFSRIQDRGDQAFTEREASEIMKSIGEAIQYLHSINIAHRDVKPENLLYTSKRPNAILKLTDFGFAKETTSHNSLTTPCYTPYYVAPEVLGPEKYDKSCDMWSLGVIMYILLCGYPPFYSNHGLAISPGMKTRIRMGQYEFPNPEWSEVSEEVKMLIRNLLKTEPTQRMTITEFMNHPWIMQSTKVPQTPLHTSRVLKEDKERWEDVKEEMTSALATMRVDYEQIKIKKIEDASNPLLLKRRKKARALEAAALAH
Chain of ZAP70 (human) (P43403 whole entry, looked up): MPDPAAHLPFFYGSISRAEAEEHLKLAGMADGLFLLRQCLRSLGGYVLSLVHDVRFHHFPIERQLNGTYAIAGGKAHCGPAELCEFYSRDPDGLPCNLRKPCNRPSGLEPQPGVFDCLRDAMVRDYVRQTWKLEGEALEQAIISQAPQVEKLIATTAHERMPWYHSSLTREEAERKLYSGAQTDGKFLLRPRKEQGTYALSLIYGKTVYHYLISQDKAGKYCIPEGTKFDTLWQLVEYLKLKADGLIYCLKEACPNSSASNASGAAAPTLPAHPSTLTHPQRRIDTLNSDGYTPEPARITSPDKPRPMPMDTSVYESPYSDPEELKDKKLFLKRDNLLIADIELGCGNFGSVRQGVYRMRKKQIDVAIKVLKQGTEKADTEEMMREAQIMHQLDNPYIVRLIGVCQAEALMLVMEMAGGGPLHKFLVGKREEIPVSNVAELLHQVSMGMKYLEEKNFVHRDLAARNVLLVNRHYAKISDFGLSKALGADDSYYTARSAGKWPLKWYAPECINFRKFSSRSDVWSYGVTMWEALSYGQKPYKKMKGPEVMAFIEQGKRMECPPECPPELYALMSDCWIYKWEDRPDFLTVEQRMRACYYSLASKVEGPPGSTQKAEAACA

COc1ccc(C(=O)Nc2sc3c(c2C(N)=O)CCCC3)cc1OC showed a residual activity (EPHA4 (human)) of 104%, a residual activity (PHKG2 (human)) of 106% and a residual activity (CDK9 CCNT1 (human)) of 102%. The residual activity (ROCK2 (human)) was 92.3%, the residual activity (LYN (human)) was 93.5% and 95.9% and the residual activity (CSK (human)) was 98.8%. The residual activity (PKN1 (human)) was 96.3%, the residual activity (CDK1 CCNB1 (human)) was 94.3% and the residual activity (STK11 (human)) was 103%. The residual activity (IGF1R (human)) was 97.7%, the residual activity (TXK (human)) was 96.2% and the residual activity (MAP3K10 (human)) was 96.6%. It also gave a residual activity (DYRK4 (human)) of 98.5%, a residual activity (STK39 (human)) of 101% and a residual activity (CDK2 CCNE1 (human)) of 94.6%. It also gave a residual activity (PDPK1 (human)) of 87.8%, a residual activity (PBK (human)) of 103% and a residual activity (STK10 (human)) of 93.9%. It also gave a residual activity (AKT2 (human)) of 97%, a residual activity (TGFBR1 (human)) of 95.8% and a residual activity (RPS6KA6 KD1 KD2 (human)) of 98.5%. The residual activity (DSTYK (human)) was 92.2%, the residual activity (MAP3K11 (human)) was 96.8% and the residual activity (ZAP70 (human)) was 95.6%. It also gave a residual activity (RPS6KA3 KD1 KD2 (human)) of 93%, a residual activity (PRKCB1 (human)) of 91.8% and a residual activity (EPHA2 (human)) of 102%. It also gave a residual activity (PAK2 (human)) of 99.1%, a residual activity (STK3 (human)) of 99.6% and a residual activity (ABL1 (human)) of 101%. It also gave a residual activity (FYN (human)) of 93.9%, a residual activity (MAP4K5 (human)) of 94.3% and a residual activity (MAPKAPK2 (human)) of 104%. For the same compound, the residual activity (WNK3 (human)) was 96.4%, the residual activity (LRRK2 (human)) was 87.4% and the residual activity (GSG2 (human)) was 82.8%. It also gave a residual activity (JAK2 JH1 JH2 (human)) of 99.9%, a residual activity (LIMK1 (human)) of 93.2% and a residual activity (TAOK1 (human)) of 95.5%. It also gave a residual activity (LCK (human)) of 93.8%, a residual activity (RAF1 (human)) of 94.8% and a residual activity (PRKCE (human)) of 95%.
COc1cc2ncnc(Nc3ccc(OCc4ccccc4)cc3)c2cc1OC was tested, and the residual activity (EPHA4 (human)) was 98.5%, the residual activity (PHKG2 (human)) was 97.4% and the residual activity (CDK9 CCNT1 (human)) was 94.5%. For the same compound, the residual activity (ROCK2 (human)) was 96%, the residual activity (LYN (human)) was 91.2% and 92.8% and the residual activity (CSK (human)) was 72.5%. It also gave a residual activity (PKN1 (human)) of 101%, a residual activity (CDK1 CCNB1 (human)) of 89.9% and a residual activity (STK11 (human)) of 102%. It also gave a residual activity (IGF1R (human)) of 102%, a residual activity (TXK (human)) of 99.4% and a residual activity (MAP3K10 (human)) of 94.9%. It also gave a residual activity (DYRK4 (human)) of 97.6%, a residual activity (STK39 (human)) of 95.8% and a residual activity (CDK2 CCNE1 (human)) of 96.7%. It also gave a residual activity (PDPK1 (human)) of 103%, a residual activity (PBK (human)) of 109% and a residual activity (STK10 (human)) of 68.2%. The residual activity (AKT2 (human)) was 101%, the residual activity (TGFBR1 (human)) was 95.7% and the residual activity (RPS6KA6 KD1 KD2 (human)) was 95.9%. For the same compound, the residual activity (DSTYK (human)) was 95.9%, the residual activity (MAP3K11 (human)) was 92.2% and the residual activity (ZAP70 (human)) was 87.6%. The residual activity (RPS6KA3 KD1 KD2 (human)) was 103%, the residual activity (PRKCB1 (human)) was 97.4% and the residual activity (EPHA2 (human)) was 106%. For the same compound, the residual activity (PAK2 (human)) was 102%, the residual activity (STK3 (human)) was 97.6% and the residual activity (ABL1 (human)) was 98%. It also gave a residual activity (FYN (human)) of 86.3%, a residual activity (MAP4K5 (human)) of 65.4% and a residual activity (MAPKAPK2 (human)) of 106%. For the same compound, the residual activity (WNK3 (human)) was 90.8%, the residual activity (LRRK2 (human)) was 92.2% and the residual activity (GSG2 (human)) was 86.2%. For the same compound, the residual activity (JAK2 JH1 JH2 (human)) was 94.3%, the residual activity (LIMK1 (human)) was 95.4% and the residual activity (TAOK1 (human)) was 94.4%. It also gave a residual activity (LCK (human)) of 42.2%, a residual activity (RAF1 (human)) of 61% and a residual activity (PRKCE (human)) of 99.4%.
